{
  "source": "patent US20050256179A1",
  "about": "“Selective pharmacologic inhibition of protein trafficking and related methods of treating human diseases” (priority 2003, published 2005)",
  "system": "Rab1b",
  "assay": "Rab1b expression by Western blotting",
  "format": "cell-based",
  "experimental": "Protein samples (in sample buffer) were boiled for 1-3 minutes and put on ice. Same amount of protein were loaded on the NuPage gel (InVitrogen). After the electrophoresis was complete, proteins were transferred from the gel to a PVDF membrane using the electro-blotting apparatus from InVitrogen; the voltage was set to 25 for 2-3 hr. Block non-specific binding by incubating membrane with 5% milk (in PBS, 0.1% tween 20) for at least 30 min at room temperature or overnight at 4° C. The blocked membrane was incubated with primary antibody (See TABLE 2) diluted in 5% milk for 1 hour at room temperature. Optimal antibody dilution depends on the company, the amount of protein. Dilutions of 1:1000 were generally used for the primary antibodies from Santa Cruz. The membrane was washed with PBS, 0.1% tween 3-4 times 5 mins. The membrane was incubated for 30-60 minutes at room temperature with horseradish peroxidase (HRP) conjugated secondary antibody diluted in 5% milk. We usually used 1:4000 dilution for the secondary antibody from Santa Cruz. The membrane was washed 3-4 times with PBS, 0.1% tween, each time 15 minutes. The detection solutions A and B were mixed in a ratio 40:1 and Pipetted onto the membrane, and incubated for 5 min at RT. A sheet of Hyper film ECL was placed on the top of the membrane in the dark and exposed for 1 min, or adjust accordingly. […]",
  "data": [
    {"compound": "O=C(Nc1ccc(-c2nc3cc(NC(=O)C4CCCCC4)ccc3[nH]2)cc1)C1CCCCC1", "note": "[AVP 893]", "values": [
      {"measurement": "Rab1b expression", "setting": "3T3 cells", "result": "not affected in 3T3 cells"},
      {"measurement": "Rab1b expression", "setting": "spleen cells", "result": "suppressed in spleen cells"}
    ]}
  ]
}
